Results published in patent US10047112B2, “Fluorescent labeled inhibitors” (priority 2014, dated 2018).
Read-outs that look alike come from different tables or passages of the source.

Legend:
[1] = tested on: M. tb H37Rv-GFP; assay: microbe, parasite or virus in culture; format: cell-based; details: Mycobacterium tuberculosis, 120 h, read-out: Extracellular growth IC50
[2] = in vitro; details: mouse
[3] = tested on: M. tb H37Rv-GFP; assay: microbe, parasite or virus in culture; format: cell-based; details: Mycobacterium tuberculosis, RAW264.7, 120 h, read-out: Intracellular macrophage growth IC50

SMILES	IC50 [1]	CC50 [2]	IC50 [3]
NNC(=O)c1ccncc1 [Isoniazid]	1.2 µM	> 150 µM	1.2 µM
CCc1cc(C(N)=S)ccn1 [Ethionamide]	6 µM	120 µM	6 µM
CO[C@H]1/C=C/O[C@@]2(C)Oc3c(C)c(O)c4c(O)c(c(/C=N/N5CCN(C)CC5)c(O)c4c3C2=O)NC(=O)/C(C)=C\C=C\[C@H](C)[C@H](O)[C@@H](C)[C@@H](O)[C@@H](C)[C@H](OC(C)=O)[C@@H]1C [Rifampin]	0.01 µM	24 µM	2.9 µM
